This note sets out measurements from PubChem BioAssay (NCI).

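Values below derive from 48-hour exposures of cells grown in 96-well plates, with endpoints linearly interpolated between the two concentrations bracketing the appropriate inhibition level. TGI denotes the concentration required for complete inhibition of growth.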

Common to all, as to assay: growth of human tumour cells (NCI), 48 h
In assay [1] the test system is HCC-2998 colon.
Assay [2] deals with SN12C renal.
In assay [3] the test system is HT29 colon.
Assay [4] has as its system UO-31 renal.
Assay [5] concerns SF-268 CNS.
The subject of assay [6] is A498 renal.
For assay [7], the system named is HOP-62 NSCLC.
Assay [8] deals with SNB-19 CNS.

For the compound `N/C(=N\C(=S)N1CCCCC1)N1CCCCC1`, the TGI in assay [1], in assay [2], in assay [3], in assay [4], in assay [5] and in assay [6] was > 100 µM each time. In addition, the TGI in assay [7] and in assay [8] was > 100 µM throughout.

Consider `Oc1cccc(C2SCc3nc4ccccc4n32)c1` (centres undefined), for which the TGI in assay [1], in assay [2], in assay [3], in assay [4], in assay [5] and in assay [6] was > 100 µM throughout. Further, the TGI in assay [8] was > 100 µM.

Consider `COc1ccc(-c2c(N)[n+]([O-])c3cc(C)c(C)cc3[n+]2[O-])cc1OC`, for which the TGI in assay [1], in assay [2], in assay [3], in assay [4], in assay [5] and in assay [6] was > 100 µM each time. The TGI in assay [7] and in assay [8] was > 100 µM each time.

Take `O=C(O)C1Cc2nc[nH]c2CN1` (centres undefined): the TGI in assay [1], in assay [2], in assay [3], in assay [4], in assay [5] and in assay [6] was > 100 µM throughout. In addition, in assay [8], the TGI is > 100 µM.

As for `COc1cc(C2C(C(=O)O)=C(C)Oc3cc4c(cc32)OCO4)cc(OC)c1OC` (centres undefined), the TGI in assay [2], in assay [3], in assay [4] and in assay [8] was > 100 µM in each case.

Consider `Nc1nc(N)c(-c2ccccc2)c(C(=O)Nc2ccc(Cl)c(Cl)c2)n1`, for which the TGI in assay [1], in assay [2], in assay [3], in assay [4], in assay [5] and in assay [6] was > 100 µM throughout. Further, the TGI in assay [7] and in assay [8] was > 100 µM throughout.

Regarding `Fc1cccc(F)c1C1SCc2nc3ccccc3n21` (centres undefined), the TGI in assay [1], in assay [2], in assay [3], in assay [4], in assay [5] and in assay [6] was > 100 µM in each case. The TGI in assay [7] and in assay [8] was > 100 µM throughout.

As to `CC1CC2C3CC(F)C4=CC(=O)C=CC4(C)C3(F)C(O)CC2(C)C1(O)C(=O)CO` (centres undefined), the TGI in assay [1], in assay [3], in assay [4], in assay [5], in assay [7] and in assay [8] was > 100 µM throughout.

Regarding `COc1cc2c(cc1OC)-c1c(cc(OC)c(OC)c1OC)C2=O`, the TGI in assay [1], in assay [2], in assay [3], in assay [4], in assay [5] and in assay [7] was > 100 µM in each case. Further, the TGI in assay [8] is > 100 µM.

Turning to `COC(=O)C1CCc2c(OC)ccc(OC)c2C1=O` (centres undefined), the TGI in assay [1], in assay [3], in assay [4], in assay [6], in assay [7] and in assay [8] was > 100 µM each time.

On to `Cc1cccc(NC(=O)CC2C(=O)Nc3ccccc3S2(=O)=O)c1C` (centres undefined), for which the TGI in assay [1] is > 100 µM; in assay [2] it was > 100 µM; in assay [3], > 100 µM; in assay [4], 50.5 µM; in assay [5] it was > 100 µM; in assay [6] it was > 100 µM. The figures for the TGI in assay [7] and in assay [8] were 52.8 µM and > 100 µM, respectively.

For `O=C(C#Cc1c[nH]c(=O)[nH]c1=O)c1ccccc1`, the TGI in assay [1] was found to be 32.4 µM; in assay [2], 15.9 µM; in assay [3] it was 53.7 µM; in assay [4], 31.8 µM; in assay [5], 26.8 µM; in assay [6], 29.1 µM. Moreover, the TGI in assay [7] amounted to 36.1 µM; in assay [8], 32 µM.

For `Cc1ccccc1NC(=O)C(=O)Cc1nc2ccccc2s1`, the TGI in assay [1], in assay [2], in assay [3], in assay [4], in assay [5] and in assay [6] was > 100 µM throughout. In addition, the TGI in assay [7] and in assay [8] was > 100 µM each time.

Regarding `O=C(O)/C(O)=C1/C=C(c2ccccc2)c2ccccc21`, the TGI in assay [1] was 49.8 µM; in assay [2], 61.9 µM; in assay [3], 86.8 µM; in assay [4], 41.6 µM; in assay [5], 51.7 µM; in assay [6] it was 98.9 µM. For the same compound, the TGI in assay [7] was determined as 55.2 µM; in assay [8], 83.9 µM.

Regarding `Cc1ccc(NC(=O)SCCC(=O)O)cc1NC(=O)SCCC(=O)O`, the TGI in assay [1], in assay [2], in assay [3], in assay [4], in assay [5] and in assay [6] was > 100 µM in each case. Also, the TGI in assay [7] and in assay [8] was > 100 µM each time.

Turning to `CC(NC1CCC[C@H]1O)c1ccccc1` (mixture of isomers), the TGI in assay [1], in assay [2], in assay [3], in assay [4], in assay [5] and in assay [6] was > 100 µM throughout. Besides, the TGI in assay [7] and in assay [8] was > 100 µM each time.

As to `C=C(CO)CC(O)c1ccccc1` (centres undefined), the TGI in assay [1], in assay [2], in assay [3], in assay [4], in assay [5] and in assay [6] was > 100 µM in each case. In addition, the TGI in assay [7] and in assay [8] was > 100 µM in each case.

`COC1OC(C)C(OC(=O)C(C)(C)C)C(C)(O)C1O` (centres undefined): the TGI in assay [1], in assay [2], in assay [3], in assay [5], in assay [6] and in assay [7] was > 100 µM in each case. In assay [8], the TGI is > 100 µM.

Regarding `C=C(C)C1CC[C@]2(C(=O)O)CCC3(C)[C@H](CCC4[C@@]5(C)CC[C@H](OC6OC(CO)C(O)C6OC6OC(C)C(O)C(O)C6O)[C@@](C)(CO)C5CC[C@]43C)C12` (some centres undefined), the TGI in assay [1], in assay [2], in assay [3], in assay [4], in assay [5] and in assay [7] was > 100 µM each time. In addition, the TGI in assay [8] is > 100 µM.

`CC(=O)O[C@H]1CCC2[C@@H]3CCC4C(=O)c5oncc5C[C@]4(C)C3CC[C@@]21C` (some centres undefined): the TGI in assay [1], in assay [2], in assay [3], in assay [5], in assay [6] and in assay [7] was > 100 µM each time.

With `CNC(=O)OCc1nc(S(C)=O)n(C)c1COC(=O)NC` (centres undefined), the TGI in assay [1] was > 100 µM; in assay [2], > 100 µM; in assay [3] it was > 100 µM; in assay [4], > 100 µM; in assay [5], > 100 µM; in assay [6], > 65.6 µM. In addition, the TGI in assay [7] and in assay [8] was > 100 µM throughout.

Take `CSc1s[s+]c(SC)c1[O-]`: the TGI was > 100 µM in assay [1]; 52.5 µM in assay [2]; 74.1 µM in assay [3]; > 100 µM in assay [4]; 55.8 µM in assay [5]; > 100 µM in assay [6]. In addition, the TGI in assay [7] and in assay [8] was > 100 µM throughout.

For the compound `COc1ccc(C(=O)C(C(=O)C(=O)Nc2nc3ccc(OC)cc3s2)c2ccc(OC)cc2)cc1` (centres undefined), the TGI in assay [1], in assay [2], in assay [3], in assay [4], in assay [5] and in assay [6] was > 100 µM each time. The TGI in assay [7] and in assay [8] was > 100 µM throughout.

As for `CC1CC(=O)C(C(O)CC2CC(=O)N(c3ccccc3)C(=O)C2)C(C)C1` (centres undefined), the TGI in assay [1], in assay [2], in assay [3], in assay [4], in assay [5] and in assay [6] was > 100 µM in each case. The TGI in assay [7] and in assay [8] was > 100 µM in each case.

As for `CC(=O)Nc1ccc(/C=c2\sc3nnc(/C=C/c4ccccc4)n3c2=O)cc1`, the TGI in assay [1], in assay [2], in assay [4], in assay [5], in assay [6] and in assay [7] was > 50 µM in each case. In addition, the TGI in assay [8] was > 50 µM.
